Experimental data: PMC4111509 (PLoS ONE, 2014)

Columns and labels:
Test in all cases: HPLC-UV product detection
Type in all cases: biochemical
Settings in all cases: AdoMet co-substrate
NpN4OMT2 = molecular target: T1, NpN4OMT2 (Narcissus aff. pseudonarcissus MK-2014, UniProt A0A077EW86)
T1 construct: gene N4OMT2; full length, N-terminal His tag (pET28a), E. coli, purified

NpN4OMT4 = molecular target: T2, NpN4OMT4 (Narcissus aff. pseudonarcissus MK-2014, UniProt A0A077ES70)
T2 construct: gene N4OMT4; full length, N-terminal His tag (pET28a), E. coli, purified
T2 sequence (A0A077ES70 whole entry): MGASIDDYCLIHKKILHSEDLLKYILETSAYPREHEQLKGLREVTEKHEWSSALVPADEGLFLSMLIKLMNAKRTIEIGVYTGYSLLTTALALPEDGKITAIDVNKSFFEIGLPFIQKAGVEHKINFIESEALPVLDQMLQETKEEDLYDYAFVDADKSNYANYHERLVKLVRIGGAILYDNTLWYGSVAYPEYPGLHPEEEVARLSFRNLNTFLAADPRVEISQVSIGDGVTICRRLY

NpN4OMT5 = molecular target: T3, NpN4OMT5 (Narcissus aff. pseudonarcissus MK-2014, UniProt A0A077ESS0)
T3 construct: gene N4OMT5; full length, N-terminal His tag (pET28a), E. coli, purified
T3 sequence (A0A077ESS0 whole entry): as the sequence (A0A077ES70 whole entry) above, with I67L counted along it

T1 sequence (A0A077EW86 whole entry): as the sequence (A0A077ES70 whole entry) above, with C9S, I11V, K14N, I67L counted along it

`Oc1ccc(CCNCc2ccc(O)c(O)c2)cc1` [norbelladine] was tested, and the HPLC-UV product detection (NpN4OMT2) was “enzymatic activity was confirmed for all variants using norbelladine as the substrate”, the HPLC-UV product detection (NpN4OMT4) was “enzymatic activity was confirmed for all variants using norbelladine as the substrate” and the HPLC-UV product detection (NpN4OMT5) was “enzymatic activity was confirmed for all variants using norbelladine as the substrate”.
